Assay results as given in article PMC8248323 (Clinical Pharmacology in Drug Development, 2021).
Marks after values point to notes of the source that are not given here.

Assay: Phase 1 DDI study 004 part B: midazolam
Settings: for effect of lemborexant coadministration on exposure: coadministration with lemborexant 10 mg; for AUC: human, plasma, Geometric LSM
[1] = coadministration of lemborexant with bupropion
[2] = with lemborexant / without lemborexant

| SMILES | AUC0‐t metabolite/parent ratio (bupropion with lemborexant) [%] | AUC0‐t metabolite/parent ratio (bupropion without lemborexant) [%] | decrease in AUC0‐t [1] [%] | decrease in Cmax [1] [%] | Cmax, Geometric LSM (midazolam 2 mg + bupropion 75 mg + lemborexant 10 mg daily) | AUC0‐t, Geometric LSM (midazolam 2 mg + bupropion 75 mg + lemborexant 10 mg daily (n = 28)) | AUC0‐t, Geometric LSM (midazolam 2 mg + bupropion 75 mg single dose, without lemborexant (n = 27)) [ng·h/mL] | Cmax, Geometric LSM (midazolam 2 mg + bupropion 75 mg, without lemborexant) [ng/mL] | AUC0‐t, Geometric Mean Ratio (90%CI) [2] | Cmax, Geometric Mean Ratio (90%CI) [2] | effect of lemborexant coadministration on exposure | effect of lemborexant coadministration on exposure (listed as midazolam) | AUC (AUC0‐inf, midazolam 2 mg + bupropion 75 mg + lemborexant 10 mg daily) [ng·h/mL] | AUC (AUC0‐inf, midazolam 2 mg + bupropion 75 mg, without lemborexant) [ng·h/mL] | AUC (AUC0‐t, midazolam 2 mg + bupropion 75 mg + lemborexant 10 mg daily (n = 28)) [ng·h/mL] | AUC (AUC0‐t, midazolam 2 mg + bupropion 75 mg single dose, without lemborexant (n = 27)) [ng·h/mL] | AUC0‐inf, Geometric Mean Ratio (90%CI) [2] |
| --- | --- | --- | --- | --- | --- | --- | --- | --- | --- | --- | --- | --- | --- | --- | --- | --- | --- |
| C[C@@H]1NC(C)(C)CO[C@@]1(O)c1cccc(Cl)c1 [[S,S]‐hydroxylated bupropion] | 124 | 88.7 | 24.5 | 17 | 6.57 ^c ng/mL | 53.2 ^c ng·h/mL | 70.5 | 7.93 | 0.755 (0.661–0.862) | 0.829 (0.759–0.905) | – | – | – | – | – | – | – |
| Cc1ncc2n1-c1ccc(Cl)cc1C(c1ccccc1F)=NC2 [Midazolam] | – | – | – | – | – | – | – | – | 1.133 (1.025–1.253) | 1.126 (1.026–1.236) | not affected | did not have an effect | 24.1 | 21.4 | 22.9 | 20.2 | 1.130 (1.023–1.247) |
